In brackets after ≈: the same amount, converted by molar mass. Non-standard residues stand in square brackets, D forms with d. Residues, ends and D or L forms follow the SMILES beside them. No end group written: not given here. 1Nal = N[C@@H](Cc1cccc2ccccc12)C(=O)O; Nle = CCCC[C@H](N)C(=O)O
Experiments:
[1] = system: Staphylococcus aureus (ATCC 29213); assay type: cell-based; conditions: ATCC 29213, 18 h
[2] = system: DNA synthesis in MRSP E104; assay: Macromolecule biosynthesis assay, DNA (3H-thymidine); assay type: cell-based, Staphylococcus pseudintermedius; conditions: 0.5× MIC, 20 min incubation, MRSP E104, 3H-thymidine; means of two experiments
Experimental: (§1) The effect on DNA and cell wall synthesis was investigated after 20 min of incubation of MRSP E104 with the precursors ^3H-thymidine and ^3H-glucosamine hydrochloride, respectively, as previously reported by Ling et al.. Following macromolecule precipitation, radioactivity was counted using scintillation fluid. Incorporation of ^3H- or ^14C-labeled thymidine has been used to investigate DNA replication and transcriptional activity during the cell cycle; ^3H-glucosamine hydrochloride has been used in a mode of action study for the antimicrobial peptide plectasin, which targets the cell wall precursor lipid II [44].
(§2) Macromolecules (DNA and cell wall) biosynthesis rates were measured using strain MRSP E104 following a protocol adapted from Ling et al.. Briefly, overnight culture of E104 was diluted 1:100 in MHB and freshly grown up to OD 0.2 at 600 nm. Grown cells were pelleted down by centrifugation and then resuspended in fresh MHB medium followed by incubation for 20 min on a dry heat-bath with D2 or analogues or nisin and radiolabeled precursor: (50 µCi) ^3H-Thymidine (PerkinElmer) and (5 µCi) ^3H-glucosamine hydrochloride per mL for DNA and cell wall, respectively. A positive control without antimicrobials was maintained that corresponds to 100% synthesis rate. After 20 min of incubation, samples were precipitated with equal volume of cold 30% trichloroactic acid (TCA Sigma, Søborg, Denmark) on ice. After 15 to 30 min of incubation on ice, precipitates were filtered on a membrane filter and subsequently washed twice with cold 15% TCA and twice with cold water using a vacuum manifold. Next, filters were air dried overnight and then moved to 10 mL scintillation vials. Finally, 3 mL scintillation fluid was added to each vial and ^3H count was taken in Beckman Coulter LS6500 liquid scintillation counter for 1 min. The radioactive counts of the control samples with no antimicrobial exposure were considered to have 100% precursor incorporation and macromolecule synthesis. The percentage rates of macromolecule synthesis in the antimicrobial-exposed samples were calculated compared to control. Each experiment was performed twice with a technical replicate, and the average rates of synthesis were plotted.

[3] = system: Methicillin resistant Staphylococcus pseudintermedius, (C22963); assay type: cell-based; conditions: 18 h
[4] = system: Pseudomonas aeruginosa (ATCC 27853); assay type: cell-based; conditions: ATCC 27853, 18 h
Experimental: To explore the antimicrobial activity of the library of peptides and peptidomimetics, they were tested against Acinetobacter baumannii, Corynebacterium auriscanis, Escherichia coli, Enterococcus faecalis, Enterococcus faecium, Klebsiella pneumonia, Proteus mirabilis, and Pseudomonas aeruginosa. Bacteria grown on agar plates for 18 h at 37 °C were diluted to ~1 × 10^8 CFU/mL in Mueller–Hinton broth (MHB). Two-fold serial dilutions of peptides and peptidomimetics in MHB II were inoculated with bacteria to achieve a final concentration of 5 × 10^5 CFU/mL in polypropylene 96 U-well microtiter plates (Almeco, Esbjerg, Denmark), followed by incubation at 37 °C in ambient air for 18 h. The MIC values were determined as the lowest concentration showing no visible bacterial growth. Experiments were performed twice (in technical triplicates) on two different days.

[5] = system: membrane proton motive force of E104 cells; assay: DiSC3(5) fluorescence, membrane depolarization; assay type: cell-based, Staphylococcus pseudintermedius; conditions: 0.5× MIC, n = 2
Description: In this study, the DiSC3(5) probe was used to assess the effect of D2 and its structural analogues D2L, D2D, and D2R on cytoplasmic membrane depolarization. DiSC3(5) is a cationic carbocyanine dye, which accumulates on negatively charged membrane, translocates into lipid membrane with a distribution dependent on plasma and mitochondrial membrane potential. Altered emission profile of DiSC3(5) measured via fluorescence spectroscopy indicates membrane depolarization caused by proton motive force dissipation, ATP production and/or pore formation. The increment of DiSC3(5) fluorescence of labeled cells resulting from its leakage upon addition of antimicrobial agents is usually measured over time. The protonophore carbonyl cyanide metachlorophenyl hydrazone (CCCP) is used as positive control, which rapidly dissipates PMF increasing proton permeability, alters both membrane proton gradient and transmembrane electric potential and decreases cellular ATP content. Based on the MIC and growth analysis results, sub-lethal concentrations of D2 and selected analogues were chosen to perform DiSC3(5) fluorescence and macromolecule biosynthesis studies.
Freshly grown E104 cells with OD 0.2 at 600 nm were labeled with 1 µM 3,3-dipropylthiadicarbocyanine iodide [DiSC3(5)] (Sigma-Aldrich, Søborg, Denmark) in MHB. The fluorescence spectra of fluorophore-labeled cells were plotted using the LS-50B luminescence spectrometer (PerkinElmer, Waltham, MA, USA) at excitation/emission wavelengths 546 nm/573 nm using time drive application of FLWINLAB software. After reading initial stable emission spectra of DiSC3(5), labeled cells were exposed with D2 or analogues or nisin or protonophore CCCP by directly injecting the concentrated solution of agent to the cuvette, and the change of fluorescence over time was recorded until emission spectra reached to stability. The increment of DiSC3(5) fluorescence upon addition of antimicrobials or CCCP (FUafter-exposure – FUbefore-exposure) was calculated and plotted in addition to raw fluorescence spectra. Experiment was performed twice and average fluorescence change was plotted with standard deviation.

[6] = system: MRSP ST71 strain E104; assay: Growth curve analysis (BioScreen); assay type: cell-based, Staphylococcus pseudintermedius; conditions: at the MIC, MRSP E104, OD600, 6 h, 37 °C
Experimental: First, we performed growth curve analysis using the well-characterized MRSP ST71 strain E104, which is resistant to a number of antibiotics. […] A well-characterized antimicrobial peptide, nisin, was used as control. […] Increased concentrations of nisin inhibited proportionally the growth of E104, both at sub-MIC and MIC concentrations.
The effect of D2 or analogues or nisin on the growth of MRSP strain E104 was evaluated using BioScreen (Oy Growth Curves Ab LTd, Helsinki, Finland). Freshly grown culture of E104 was diluted to OD 0.2 at 600 nm, supplemented with increased concentration of antimicrobials and distributed in a 100 well honeycomb micro-plate with volume 100 μL. The plate was incubated for 6 h at 37 °C with continuous shaking. The OD600 of each micro-culture was measured and recorded every 15 min after a 5 s pause of shaking in automatic mode. Recorded OD was plotted against time to prepare the growth curves. Experiment was performed twice and one representative result was presented.

[7] = system: Methicillin sensitive Staphylococcus pseudintermedius (26916); assay type: cell-based; conditions: 18 h
[8] = system: cell wall synthesis in MRSP E104; assay: Macromolecule biosynthesis assay, cell wall (3H-glucosamine hydrochloride); assay type: cell-based, Staphylococcus pseudintermedius; conditions: 0.5× MIC, 20 min incubation, MRSP E104, 3H-glucosamine hydrochloride; means of two experiments
Experimental: as §1, §2

[9] = system: red blood cell (RBC); conditions: 0.5% RBC suspension in PBS, 1 h, 37 °C, read at 414 nm, normalized to mellitin and PBS, triplicates
Experimental: Briefly, 75 µL of peptide in PBS was mixed with 75 µL of a 0.5% red blood cell (RBC) suspension in PBS, and incubated for 1 h at 37 °C. The hemoglobin release was then measured at 414 nm and normalized, using mellitin as positive control and PBS as negative control. Experiments were done in triplicates.

[10] = system: S. aureus; parameters: method as in PMID 28262682; conditions: cited from earlier work

Compound | MIC SA [1] | inhibition of DNA biosynthesis rate [2] | MIC MRSP [3] | MIC PA [4] | effect on PMF (membrane depolarization, DiSC3(5) fluorescence) [5] | growth curve, change of cell optical density over time [6] | MIC MSSP [7] | effect on (inhibition of) cell wall synthesis [8] | HA, percentage of hemolysis at 150 µM [9] | antimicrobial activity (MIC) against S. aureus [10]
CCCC[C@H](NC(=O)[C@H](CCCCN)NC(=O)[C@H](Cc1cccc2ccccc12)NC(=O)[C@H](CCCCN)NC(=O)[C@H](Cc1ccccc1)NC(=O)[C@H](Cc1cccc2ccccc12)NC(=O)[C@H](CCCCN)NC(=O)[C@@H](N)CCCCN)C(N)=O [D2L] (H-KK[1Nal]FK[1Nal]K[Nle]-NH2; N-terminus assumed) | 32 µg/mL (≈ 27 µM) | 17% | 8 µg/mL (≈ 6.75 µM) | 16 µg/mL (≈ 13.5 µM) | strongest effect on PMF | cell lysis | 16 µg/mL (≈ 13.5 µM) | 31% | 35% | 
CCCC[C@H](N)C(=O)N[C@@H](CCCCN)C(=O)N[C@@H](Cc1cccc2ccccc12)C(=O)N[C@@H](CCCCN)C(=O)N[C@@H](Cc1ccccc1)C(=O)N[C@@H](Cc1cccc2ccccc12)C(=O)N[C@@H](CCCCN)C(=O)N[C@@H](CCCCN)C(N)=O [D2R] (H-[Nle]K[1Nal]KF[1Nal]KK-NH2; N-terminus assumed) | 32 µg/mL (≈ 27 µM) | < 5% | 4 µg/mL (≈ 3.38 µM) | 32 to 64 µg/mL | strongest effect on PMF | cell lysis | 16 µg/mL (≈ 13.5 µM) | 22% | 23% | 
KLKLLLLLKLK-NH2 |  |  |  |  |  |  |  |  |  | 16 µg/mL
nisin (ITSISLCTPGCKTGALMGCNMKTATCHCSIHVSK; also: lantibiotic: lanthionine rings and dehydro residues, places not given here; UniProt P13068 24-57, looked up) [well-characterized antimicrobial peptide used as control, reference compound] |  | 45% |  |  | does not have any effect on PMF |  |  |  |  | 

Reference: PMC6470533, “Structure–Activity Study, Characterization, and Mechanism of Action of an Antimicrobial Peptoid D2 and Its D- and L-Peptide Analogues” (Molecules, 2019)
